Data set [1] relates to nociceptive reflex response (tail removal caused by painful heat stimulus). Description: "Tail-Flick" test, analgesic activity. Type of data set: in vivo, male Swiss mice. As to conditions: mice. Here is the method: Tests consisting in measuring the in vivo activity of the compounds of the invention on a nociceptive reflex response were performed. In this approach, the latency of the animal's nociceptive reflex response is measured as a pain indicator.
The analgesic activity was determined by means of the “tail-flick” test in male Swiss mice (Iffa Credo). This test is based on the spontaneous nociceptive reflex of removal of the animal's tail caused by a painful heat stimulus (infrared source). The “tail-flick” test (D'Amour-Smith test, 1941, Pharmacol. Exp. Ther.; 72: 74-79) consists, after administering a product, in placing a mouse's tail at the focal point of the infrared source so as to produce a nociceptive heat stimulus (surface temperature of about 55-60° C.). The mouse's reaction time (RT) (latency between the moment when the light beam is switched on and the moment when the mouse removes its tail) was measured in duplicate at different times ranging from 20 minutes to 120 minutes after administration of the product. The heat intensity is regulated such that this removal reflex is between 0.5 and 3.5 seconds in the control animals, and arbitrarily represents the criterion for minimum analgesia (0%). Two reaction time measurements were taken before administration of the product for each mouse, to establish a baseline measurement time. A maximum time of 8 seconds was chosen as the maximum reaction time so as not to induce tissue damage by burning the animals, and arbitrarily represents the criterion for maximum analgesia (100%). The reaction time is increased by the analgesics relative to a control animal not receiving any treatment. The products were administered subcutaneously and orally at doses of between 1.25 and 30 mg/kg. […]
The percentage of analgesic activity (% MPE) is determined by the following formula: %MPE=(RTpost-administration−RTpre-administration)*100/(RTmax−RTpre-administration).

The term ED50 denotes the dose at which the effect has come halfway, by size or by number of responders. A low value points to an effect at a small dose. In general, melting point refers to the temperature, or range, at which the solid turns liquid. In turn, `CN1CC[C@]23c4c5ccc(O)c4O[C@H]2C(O[C@@H]2OC(c4nc6n(n4)CCC(O)N6)[C@@H](O)C(O)C2O)C=CC3[C@H]1C5` (stereo partly drawn) [morphin-6-yl 5-C-(5-hydroxy-4,5,6,7-tetrahydro[1,2,4]triazolo[1,5-a]pyrimidin-2-yl)-β-D-xylopyranoside] gave a melting point of 201 °C. In addition, the ED50 in data set [1] (Mus musculus, sc, 1 h, subcutaneous, determined 60 minutes after administration) is < 1.25 mg/kg. For the same molecule, in data set [1] (subcutaneous administration), the “duration of the analgesic action” value was “more than 120 minutes”. Besides, the “maximum percentage of analgesic activity (% MPE max index)” value in data set [1] (subcutaneous, dose of 1.25 mg/kg) was 80%.

Source of the values: patent publication US8440634B2, “Bicyclic derivatives of morphine-6-glucuronide, preparation method thereof and use of same in therapeutics” (Sanofi, priority 2008, dated 2013).
